The record followed here is patent US5608093A, “Corticosteroid 17-alkyl carbonate 21-[0]-carboxylic and carbonic esters, and pharmaceuticals containing these compounds” (Hoechst Aktiengesellschaft, priority 1993, dated 1997).

For data set [1], the system named is carrageenan paw edema. Nature of the data set: Systemic antiinflammatory effect following subcutaneous administration: carrageenan paw edema in rats. In kind it is in vivo, rat (male Sprague-Dawley). Conditions: for Increase in volume (ml) (x ± s), paw: 6 h after carrageenan. As to the method:
2 a) Examining for systemic antiinflammatory effect in the "antiinflammatory effect following subcutaneous administration: carrageenan paw edema in rats" test.
The carrageenan paw edema test in rats in accordance with the method described by Winter et al. Proc. Soc. Exp. Biol. (New York) Volume 111, p. 544 (1962) was chosen as the test for the acute systemic antiinflammatory effect. Male Sprague-Dawley rats of about 120 g in weight were given the substances to be tested s.c. (0.2 ml/100 g) dissolved in sesame oil. 30 min later, 0.1 ml of a 0.5% carrageenan solution was injected into the left hind paw. 6 h later, the degree of swelling was measured volumetrically. Controls were only given sesame oil.
The paw volumes are given in ml, x±s. In this case too, the antiinflammatory effect is characterized by giving the dose in mg/kg required for approximately 50% inhibition.

Data set [2] concerns croton oil (TPA) ear edema, rat ear. As to the kind of experiment: Local antiinflammatory effect in rat croton oil ear edema following epicutaneous application. In kind it is in vivo, rat (male Wistar). Conditions: for Inhibition in % / x ± s (mg), ear disk weight difference (right treated minus left untreated): epicutaneous, 4 h; for Local antiinflammatory effect (in words): general statement; for Relative local antiinflammatory potency (Result): rat ear edema, in words. How it is done: (§1) 1. Local antiinflammatory effect in rat croton oil ear edema following epicutaneous application
(§2) We used the rat ear method of Tonelli et al.: male Wistar rats from our own colony and weighing about 50 g were treated epicutaneously on the right ear with the irritant or with irritant containing test substance. The left ear remained untreated. TPA (12-O-tetradecanoylphorbol 13-acetate, SIGMA P 8139) dissolved in acetone, 0.4 mg/ml, (of which 20 μl each on the inside and outside) was used for eliciting the inflammation. The corticoids under examination were dissolved in this solution in the given final concentrations. Controls only received the TPA/solvent mixture. The animals were sacrificed using CO2 4 h after the epicutaneous treatment. Disks measuring 8 mm in diameter were punched out of the right (treated) and the left (untreated) ears and weighed immediately. This difference, as the parameter for the degree of inflammation, was set at 100 in the controls (mg, x±s). The antiinflammatory effect is characterized by giving the dose in mg/ml which is required for approximately 50% inhibition: […]

Data set [3] has as its system gluconeogenesis in rats (liver). As to the kind of experiment: Systemic effect: gluconeogenesis in adrenalectomized rats. To be noted: for Glycogen + glucose mg/100 g of liver / Liver glycogen: 6 h; for Effect on new formation of glucose and glycogen (in words): p 0.05, t test.
Procedure: A sensitive method for detecting systemic effects on carbohydrate metabolism is to examine the gluconeogenic effect of corticosteroids in the adrenalectomized rat. Three days prior to the experiment, groups of in each case 6 rats are adrenalectomized under pentobarbital anesthesia and then provided with 0.9% sodium chloride solution as drinking fluid. Two days later, i.e. 24 hours before initiating the experiment, the feed is removed in order to reduce the glycogen stores in the liver.
On the day of the experiment, the preparations under examination are administered subcutaneously, dissolved in sesame oil (2 ml/kg). Six hours later, the animals are decapitated, and in each case the liver is removed and 1 g thereof is taken up in 5 ml of 0.6 molar perchloric acid. After homogenization, the free glucose is measured in the supernatant from the centrifugation, while the centrifugation sediment (centrifugate; glycogen) is cleaved enzymically with amyloglucosidase, after which the glucose content is also measured in this fraction (Hexokinase method, Boehringer Mannheim).
The nature of data set [4]: Split (ratio) of local to systemic antiinflammatory effect / therapeutic advantage. The format is in vivo, rat. How it is done:
as §1, §2
The carrageenan paw edema test in rats in accordance with the method described by Winter et al. Proc. Soc. […] 6 h later, the degree of swelling was measured volumetrically. […]

Where [5] appears, read: 3.0 mg/kg s.c., * p<0.05, Dunnett's test.
Where [6] appears, read: 3 mg/kg s.c., * significant, t test.

Molecules are shown by their SMILES.

Regarding `CCOC(=O)O[C@]1(C(=O)COC(=O)Cc2ccccc2)CC[C@H]2[C@@H]3CCC4=CC(=O)C=C[C@]4(C)[C@H]3[C@@H](O)C[C@@]21C` [Compound I, Prednisolone 17-ethyl carbonate 21-phenylacetate], the “Increase in volume (ml) (x ± s), paw” value in data set [1] (0.3 mg/kg s.c.) was found to be 0.34 ± 0.12 mL; in data set [1] (setting [5]), 0.19 ± 0.9 mL. For the same compound, the Inhibition in % in data set [2] (0.03 mg/ml) is on record as 33%; in data set [2] (0.1 mg/ml), 67%; in data set [2] (0.3 mg/ml), 80%. In addition, the “x ± s (mg), ear disk weight difference (right treated minus left untreated)” value in data set [2] (0.03 mg/ml) turned out to be 10 ± 3.0 mg; in data set [2] (0.1 mg/ml) it was 5 ± 1.1 mg; in data set [2] (0.3 mg/ml), 3 ± 2.3 mg. For the same compound, the “Local antiinflammatory effect (in words)” value in data set [2] is given as “strong local antiinflammatory effect”. Also, the “Relative local antiinflammatory potency (Result)” value in data set [2] is listed as “approximately three times more powerful than prednicarbate”. Moreover, the results for the “Glycogen + glucose mg/100 g of liver” value in data set [3] (0.3 mg/kg s.c.) and in data set [3] (setting [6]) were 11.3 ± 2.0 mg/100 g of liver and 25.9 ± 13 mg/100 g of liver, respectively. The Liver glycogen in data set [3] (0.3 mg/kg s.c.) worked out at 0.5 ± 0.7; in data set [3] (setting [6]), 2.4 ± 2.4. Moreover, the “Effect on new formation of glucose and glycogen (in words)” value in data set [3] (3 mg/kg s.c.) is listed as “do not have any significant effect at 3 mg/kg”. In addition, the “Split / ratio of local to systemic antiinflammatory effect (in words)” value in data set [4] is “strikingly favorable split to weak systemic activity”.
As to `CCOC(=O)O[C@]1(C(=O)COC(=O)Cc2ccccc2)[C@@H](C)C[C@H]2[C@@H]3CCC4=CC(=O)C=C[C@]4(C)[C@@]3(F)[C@@H](O)C[C@@]21C` [Compound II, Betamethasone 17-ethyl carbonate 21-phenyl acetate], the “Increase in volume (ml) (x ± s), paw” value in data set [1] (0.3 mg/kg s.c.) worked out at 0.33 ± 0.12 mL; in data set [1] (setting [5]), 0.19 ± 0.9 mL. Besides, the Inhibition in % was 66% in data set [2] (0.1 mg/ml) and 70% in data set [2] (0.3 mg/ml). The “x ± s (mg), ear disk weight difference (right treated minus left untreated)” value in data set [2] (0.1 mg/ml) turned out to be 5.1 ± 3.3 mg; in data set [2] (0.3 mg/ml) it was 4.5 ± 3.1 mg. Besides, the “Local antiinflammatory effect (in words)” value in data set [2] is “strong local antiinflammatory effect”. For the same compound, the “Relative local antiinflammatory potency (Result)” value in data set [2] is “corresponding effect to that of compound I”. For the same compound, the “Glycogen + glucose mg/100 g of liver” value is listed as 23.6 ± 6.8 mg/100 g of liver in data set [3] (0.3 mg/kg s.c.) and 37.9 ± 30 mg/100 g of liver in data set [3] (setting [6]). Moreover, the Liver glycogen was determined as 2.8 ± 1.4 in data set [3] (0.3 mg/kg s.c.) and 7.4 ± 10 in data set [3] (setting [6]). The “Effect on new formation of glucose and glycogen (in words)” value in data set [3] (3 mg/kg s.c.) is “do not have any significant effect at 3 mg/kg”. Besides, in data set [4], the “Split / ratio of local to systemic antiinflammatory effect (in words)” value is on record as “strikingly favorable split to weak systemic activity”.
As for `CCOC(=O)O[C@]1(C(=O)COC(=O)CC)CC[C@H]2[C@@H]3CCC4=CC(=O)C=C[C@]4(C)[C@H]3[C@@H](O)C[C@@]21C` [Prednicarbate, prednisolone 17-ethyl carbonate 21-propionate, reference compound], the “Systemic effect in paw edema compared with the test compounds (in words)” value in data set [1] (significant only after 3 mg/kg, s.c.) is “corresponds to the behavior of prednicarbate”. Besides, in data set [2] (1 mg/ml), the Inhibition in % came out at 80% and the “x ± s (mg), ear disk weight difference (right treated minus left untreated)” value is recorded as 3 ± 1.7 mg.
